Data as given in patent US12310946B2, “Pharmaceutical composition for oral administration of edaravone and method of administering same” (MITSUBISHI TANABE PHARMA CORPORATION, priority 2020, dated 2025).
Like-named read-outs stand apart in the source and are kept apart here.

How the values were obtained:
[1] = Solubility of edaravone in water and BCS classification; format: physicochemical
Procedure: Since 1 g of edaravone requires 500 mL of water to dissolve, 105 mg of edaravone is calculated to require 52.5 mL of water. […] Thus, edaravone is regarded as a BCS Class 1 drug with high solubility and high permeability. These findings led to a brief that edaravone is a compound whose pharmacokinetics are not affected by meal consumption. […] Not only the presence or absence of a meal but also the types of meal cause differences in effects on the pharmacokinetics of edaravone, and suitable administration timing depends on each type of meal.

[2] = Clinical study #9: PK of edaravone oral formulation (formula #3) in healthy adults (reference group), oral, fasted; format: in vivo; conditions: both sexes, human, plasma, 105 mg oral, healthy (n = 42), mean, before weight correction
Procedure: On the other hand, a clinical study #9 shown below was conducted in healthy adult male and female subjects (42 in total) (the reference group). That is, the edaravone oral formulation of the formula #3 was administered orally to the reference group in fasted conditions after a lapse of 10 hours or longer. Then, blood samples were each collected before the administration, and 5 minutes, 15 minutes, 30 minutes, 45 minutes, 1 hour, 1.5 hours, 2 hours, 4 hours, 6 hours, 8 hours, 10 hours, 12 hours, 24 hours, 36 hours, and 48 hours after the administration, and the concentrations of unchanged edaravone in plasma were measured.
The resulting PK parameters were corrected for body weight of each subject adjusted to 70 kg by a proportional calculation for each of the patient group and the reference group. In addition, the results of the PK parameters after correction of the patient group are shown as box-whisker plots of #9 (the reference group), and individual plots of #5 (the patient group) and #9 (the reference group) in FIG. 3. In FIG. 3, X represents a mean value. […] Thus, the difference in the Cmax and the difference in the AUC before weight correction between the patient group and the reference group seen in Table 9 below are considered due to the difference in body weight between the patient group and the reference group, and the difference in the Cmax and the difference in the AUC after weight correction between the patient group and the reference group observed in FIG. 3 are each considered to be within the range of error.

[3] = Clinical study #2: PK of edaravone oral formulation (formula #2), fasted vs 4 h after high-fat meal; format: in vivo; conditions: male, human, plasma, 100 mg, 100 mg oral, mean (n = 9)
Procedure: Effects of meal consumption before administration of the edaravone oral formulation on the pharmacokinetics of edaravone were evaluated. Specifically, clinical studies #1, #2, and #3 described below were conducted on separate days in Japanese healthy adult male subjects. In each of clinical studies #1, #2, and #3, one dose each of edaravone oral formulations (edaravone suspensions) of formulas #1, #2, and #3 shown in Table 1 below were used respectively and administered orally once during the study period. For each clinical study, a reference study was conducted (reference example), in which the edaravone oral formulation was administered in fasted conditions as described below, and in each clinical study and the corresponding reference study, the edaravone oral formulation was each administered to the same subjects.
For the high-fat meal, a meal with total calories per meal of 800 to 1000 kilocalories and calorie intake from lipid of 50% was used. For the standard meal, a meal with total calories per meal of 400 to 500 kilocalories and calorie intake from lipid of 25% was used. For the light meal, a liquid-type nutritional supplement with total calories per meal of 250 kilocalories (enteral nutritional supplement: Ensure Liquid (trade name)) was used.
The edaravone oral formulation (formula #2) was administered orally to the subjects 4 hours after high-fat meal consumption. Blood samples were each collected before the administration, and 5 minutes, 15 minutes, 30 minutes, 1 hour, 1.5 hours, 2 hours, 4 hours, 6 hours, 8 hours, 12 hours, 24 hours, 36 hours, and 48 hours after the administration, and the concentrations of unchanged edaravone in plasma were measured. On the other hand, as a reference example, the edaravone oral formulation was administered orally to the same subjects in fasted conditions, blood samples were collected, and the concentrations of unchanged edaravone in plasma were measured in the same manner. For the administration in fasted conditions, the edaravone oral formulation was administered orally after a lapse of 10 hours or longer from the previous meal consumption. None of the subjects consumed a next meal until the blood sample collection 4 hours after the administration was completed.

[4] = Clinical study #10: PK of edaravone oral formulation (formula #7, 120 mg), standard meal 30 minutes after administration vs fasted; format: in vivo, human; conditions: 120 mg oral; for Cmax / Tmax / half-life / AUC(0-t): male, human, plasma, po, 120 mg, mean; for AUC(0-t): read-out: AUC0-24h
Procedure: Effects of meal consumption 30 minutes after administration of the edaravone oral formulation on the pharmacokinetics of edaravone were evaluated. Specifically, a clinical study #10 described below was conducted in Japanese healthy adult male subjects. In the clinical study #10, the edaravone oral formulation of the formula #7 (edaravone content of 120 mg) in Table 11 above was used and administered orally once during the study period. […]
As a post-administration consumption group, subjects in fasted conditions after a lapse of 10 hours or longer from meal consumption were orally administered with the edaravone oral formulation, […] Blood samples were each collected before the administration, and 15 minutes, 30 minutes, 1 hour, 1.5 hours, 2 hours, 4 hours, 6 hours, 8 hours, 12 hours, and 24 hours after the administration, and the concentrations of unchanged edaravone in plasma were measured. […] was carried out after the blood sample collection 30 minutes after the administration, and a subsequent meal was not consumed until the blood sample collection 4 hours after the administration was completed.
On the other hand, as a fasted group for reference, the edaravone oral formulation was administered orally to different subjects in fasted conditions, blood samples were collected, and the concentrations of unchanged edaravone in plasma were measured in the same manner.

[5] = formula #2, 4 h after high-fat meal
[6] = standard meal 30 minutes after administration vs fasted
[7] = formula #7, 30 min before low-fat meal (n = 6)

water required to dissolve 105 mg of edaravone ([1]; 105 mg of edaravone, calculated): 52.5 mL
water required to dissolve 1 g of edaravone ([1]; 1 g of edaravone): 500 mL
solubility classification ([1]; Biopharmaceutics Classification System): high solubility compound
solubility ([1]; for example, water, read-out: saturation solubility of edaravone with respect to a dispersion medium): ≤ 2000 µg/mL
BCS class ([1]; solubility and Caco-2 permeability): BCS Class 1
AUC(0-inf) [2]: 1760 ng·h/mL
Cmax [2]: 1660 ng/mL
Tmax [2]: 26.4 min
AUC(0-inf) [3, 5]: 1250 ng·h/mL
Cmax [3, 5]: 1010 ng/mL
Tmax [3, 5]: 28.2 min
half-life [3, 5]: 460 min
AUC(0-inf) ([3]; formula #2, fasted): 1650 ng·h/mL
Cmax ([3]; formula #2, fasted): 1810 ng/mL
Tmax ([3]; formula #2, fasted): 21.6 min
half-life ([3]; formula #2, fasted): 560 min
decrease in the AUC in comparison with the fasted group [4, 6]: about 14.5%
decrease in the Cmax in comparison with the fasted group [4, 6]: about 12.6%
Cmax [4, 7]: 1950 ng/mL
Tmax [4, 7]: 25.2 min
half-life [4, 7]: 276 min
AUC(0-t) [4, 7]: 1920 ng·h/mL
Cmax ([4]; formula #7, fasted (n = 6)): 1740 ng/mL
Tmax ([4]; formula #7, fasted (n = 6)): 22.8 min
half-life ([4]; formula #7, fasted (n = 6)): 308 min
AUC(0-t) ([4]; formula #7, fasted (n = 6)): 2240 ng·h/mL
Structure (SMILES): CC1=NN(c2ccccc2)C(=O)C1 [Edaravone, 3-methyl-1-phenyl-2-pyrazolin-5-one]
